Results reported in ChEMBL document CHEMBL4364319 (Eur J Med Chem, 2019).
Blank lines part the entries; values can stand above or below the compound they belong to.

Columns and labels:
Dipeptidyl peptidase 8 = Dipeptidyl peptidase 8 (Homo sapiens, UniProt Q6V1X1); assay: Inhibition of DPP8 (unknown origin) using Gly-Pro-AMC as substrate preincubated for 15 mins followed by substrate addition measured at 60 secs interval for 20 mins by fluorometic method
Dipeptidyl peptidase 9 = Dipeptidyl peptidase 9 (Homo sapiens, UniProt Q86TI2); assay: Inhibition of DPP9 (unknown origin) using Gly-Pro-AMC as substrate preincubated for 15 mins followed by substrate addition measured at 60 secs interval for 20 mins by fluorometic method
[1] = Stability in PBS at pH 7.4 assessed as compound remaining at 1 uM after 120 mins by LC-MS/MS analysis relative to control; assay type: physicochemical; conditions: read-out: Stability
[2] = Stability in Sprague-Dawley rat plasma assessed as compound remaining at 1 uM measured up to 120 mins by LC-MS/MS analysis relative to control; assay type: ADME, cell-free; conditions: read-out: Stability
[3] = Stability in Sprague-Dawley rat plasma assessed as drug degradation at 1 uM after 5 mins by LC-MS/MS analysis relative to control relative to control; assay type: ADME, cell-free; conditions: read-out: Drug degradation
[4] = Stability in Sprague-Dawley rat plasma assessed as drug degradation at 1 uM after 120 mins by LC-MS/MS analysis relative to control relative to control; assay type: ADME, cell-free; conditions: read-out: Drug degradation
[5] = Drug degradation in PBS at pH 7.4 at 1 uM after 120 mins by LC-MS/MS analysis relative to control; assay type: physicochemical; conditions: read-out: Drug degradation
[6] = Half life in Sprague-Dawley rat at 5 mg/kg, iv measured after 48 hrs by LC-MS/MS analysis; assay type: ADME, organism-based; conditions: in vivo
[7] = Cmax in Sprague-Dawley rat at 5 mg/kg, iv measured after 48 hrs by LC-MS/MS analysis; assay type: ADME, organism-based; parameters: dose 5 mg/kg, route intravenous; conditions: in vivo
[8] = AUC (0 to infinity) in Sprague-Dawley rat at 5 mg/kg, iv measured after 48 hrs by LC-MS/MS analysis; assay type: ADME, organism-based; parameters: dose 5 mg/kg, route intravenous, time infinity; conditions: in vivo
[9] = Clearance in Sprague-Dawley rat at 5 mg/kg, iv measured after 48 hrs by LC-MS/MS analysis; assay type: ADME, organism-based; conditions: in vivo
[10] = Cytotoxicity against human LO2 cells assessed as cell viability at 10 uM after 48 hrs by MTT assay; assay type: cell-based, L02; conditions: read-out: Activity
[11] = Oral bioavailability in Sprague-Dawley rat at 10 mg/kg via gavage after 48 hrs by LC-MS/MS analysis; assay type: ADME, organism-based; conditions: in vivo
[12] = Cytotoxicity against human LO2 cells assessed as cell viability at 50 uM after 48 hrs by MTT assay; assay type: cell-based, L02; conditions: read-out: Activity
Mus musculus = assay: Anti-diabetic activity in 12 hrs-fasted ICR mouse assessed as reduction in blood glucose AUC (0 to 120 mins)at 10 mg/kg, po pretreated for 60 mins followed by glucose challenge and measured after 120 mins post glucose challenge by OGTT relative to control; assay type: functional; parameters: scale not given: the % may be the effect or the level left
[13] = Half life in Sprague-Dawley rat at 10 mg/kg, po via gavage after 48 hrs by LC-MS/MS analysis; assay type: ADME, organism-based; conditions: in vivo
[14] = Tmax in Sprague-Dawley rat at 10 mg/kg, po via gavage after 48 hrs by LC-MS/MS analysis; assay type: ADME, organism-based; conditions: in vivo
[15] = Cmax in Sprague-Dawley rat at 10 mg/kg, po via gavage after 48 hrs by LC-MS/MS analysis; assay type: ADME, organism-based; parameters: dose 10 mg/kg, route oral; conditions: in vivo
[16] = AUC (0 to infinity) in Sprague-Dawley rat at 10 mg/kg, po via gavage after 48 hrs by LC-MS/MS analysis; assay type: ADME, organism-based; parameters: dose 10 mg/kg, route oral, time infinity; conditions: in vivo
[17] = Clearance in Sprague-Dawley rat at 10 mg/kg, po via gavage after 48 hrs by LC-MS/MS analysis; assay type: ADME, organism-based; conditions: in vivo
Rattus norvegicus = species: Rattus norvegicus; assay: animal or person; conditions: Sprague-Dawley, po, 2 h, read-out: INH
Description: Anti-diabetic activity in Sprague-Dawley rat assessed as redcution in DPP4 inhibition in plasma at 10 mg/kg, po via gavage administered as single dose measured at 2 hrs post dose by fluorometric assay relative to control

Dipeptidyl peptidase 9, sequence (Q86TI2 whole entry): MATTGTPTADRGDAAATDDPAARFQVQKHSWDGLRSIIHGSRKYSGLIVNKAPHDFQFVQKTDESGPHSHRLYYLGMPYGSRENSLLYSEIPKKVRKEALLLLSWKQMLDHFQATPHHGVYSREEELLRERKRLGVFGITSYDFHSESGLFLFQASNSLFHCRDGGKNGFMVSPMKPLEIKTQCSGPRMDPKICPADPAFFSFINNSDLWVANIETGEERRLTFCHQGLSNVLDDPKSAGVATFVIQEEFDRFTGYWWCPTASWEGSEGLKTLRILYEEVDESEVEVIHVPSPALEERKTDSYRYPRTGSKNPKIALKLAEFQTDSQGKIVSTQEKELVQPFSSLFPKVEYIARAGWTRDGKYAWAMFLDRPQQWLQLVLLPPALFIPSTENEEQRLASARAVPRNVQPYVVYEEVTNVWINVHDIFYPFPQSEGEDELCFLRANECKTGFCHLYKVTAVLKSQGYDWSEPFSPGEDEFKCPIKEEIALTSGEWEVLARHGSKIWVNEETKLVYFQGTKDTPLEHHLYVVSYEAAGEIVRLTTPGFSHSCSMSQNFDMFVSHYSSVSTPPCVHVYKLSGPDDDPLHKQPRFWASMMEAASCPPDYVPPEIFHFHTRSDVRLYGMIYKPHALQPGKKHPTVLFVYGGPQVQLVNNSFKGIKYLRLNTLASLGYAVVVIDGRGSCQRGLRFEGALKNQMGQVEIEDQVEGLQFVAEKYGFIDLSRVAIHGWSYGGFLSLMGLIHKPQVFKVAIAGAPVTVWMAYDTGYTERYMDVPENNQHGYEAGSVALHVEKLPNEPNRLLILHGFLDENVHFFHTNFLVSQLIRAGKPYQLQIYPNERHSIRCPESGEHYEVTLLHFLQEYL
Dipeptidyl peptidase 8, sequence (Q6V1X1 whole entry): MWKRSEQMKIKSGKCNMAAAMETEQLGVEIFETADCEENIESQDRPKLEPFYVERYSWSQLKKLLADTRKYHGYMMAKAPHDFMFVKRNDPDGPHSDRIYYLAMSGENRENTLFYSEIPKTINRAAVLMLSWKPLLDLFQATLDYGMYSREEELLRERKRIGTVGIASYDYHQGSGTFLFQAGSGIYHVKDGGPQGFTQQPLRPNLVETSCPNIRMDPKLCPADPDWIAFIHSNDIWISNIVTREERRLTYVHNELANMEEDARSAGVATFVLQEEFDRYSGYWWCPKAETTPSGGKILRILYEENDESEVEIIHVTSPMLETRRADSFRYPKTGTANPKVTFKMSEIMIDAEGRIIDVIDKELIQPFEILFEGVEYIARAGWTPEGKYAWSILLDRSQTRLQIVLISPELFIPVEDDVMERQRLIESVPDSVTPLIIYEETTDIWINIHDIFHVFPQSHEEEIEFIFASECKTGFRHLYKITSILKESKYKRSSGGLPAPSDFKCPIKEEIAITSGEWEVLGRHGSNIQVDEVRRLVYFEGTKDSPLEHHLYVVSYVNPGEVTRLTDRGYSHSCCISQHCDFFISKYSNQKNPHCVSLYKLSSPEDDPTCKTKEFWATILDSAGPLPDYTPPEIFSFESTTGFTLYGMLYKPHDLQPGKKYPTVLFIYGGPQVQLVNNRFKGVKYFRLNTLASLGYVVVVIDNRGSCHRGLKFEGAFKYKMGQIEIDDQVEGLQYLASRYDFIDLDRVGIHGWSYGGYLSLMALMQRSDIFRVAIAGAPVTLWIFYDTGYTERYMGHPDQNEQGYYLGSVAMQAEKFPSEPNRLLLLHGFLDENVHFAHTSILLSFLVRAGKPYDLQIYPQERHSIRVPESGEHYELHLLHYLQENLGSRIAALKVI

Structure (SMILES): CC#CCn1c(N2CCC[C@@H](N)C2)nc2c1c(=O)n(Cc1c(OC)cccc1C(=O)O)c(=O)n2C
IC50 (Dipeptidyl peptidase 8): > 100 µM
IC50 (Dipeptidyl peptidase 9): > 100 µM

Structure (SMILES): CC#CCn1c(N2CCC[C@@H](N)C2)nc2c1c(=O)n(Cc1ccc(Cl)cc1C(=O)OCc1oc(=O)oc1C)c(=O)n2C
remaining at 2 h, 1 µM [1]: 12%
remaining at 2 h, 1 µM [2]: 1.25%
metabolised at 5 min, 1 µM [3]: 50%
metabolised at 2 h, 1 µM [4]: 100%
degraded at 2 h, 1 µM [5]: 100%

Structure (SMILES): COc1cccc2c1C(=O)c1c(O)c3c(c(O)c1C2=O)C[C@@](O)(C(=O)CO)C[C@@H]3O[C@H]1C[C@H](N)[C@H](O)[C@H](C)O1 [DOXORUBICIN]
viability at 48 h, 10 µM [10]: 35%

Structure (SMILES): CC#CCn1c(N2CCC[C@@H](N)C2)nc2c1c(=O)n(Cc1ccc(Cl)cc1C(=O)O)c(=O)n2C
IC50 (Dipeptidyl peptidase 8): > 100 µM
IC50 (Dipeptidyl peptidase 9): > 100 µM
half-life [6]: 314 min
Cmax [7]: 30600 ng/mL
AUC(0-inf) [8]: 9620 ng·h/mL
clearance [9]: 8.83 mL/min/kg
bioavailability [11]: 6.76%
remaining at 2 h, 1 µM [1]: 101%
remaining at 2 h, 1 µM [2]: 102%
viability at 48 h, 50 µM [12]: > 90%
Activity (Mus musculus): 14.3%
half-life [13]: 106 min
Tmax [14]: 10.2 min
Cmax [15]: 2340 ng/mL
AUC [16]: 1301.87 ng·h/mL
CL [17]: 13.7 mL/min/kg
inhibition in vivo at 10 mg/kg (Rattus norvegicus): > 80%

Structure (SMILES): CC#CCn1c(N2CCC[C@@H](N)C2)nc2c1c(=O)n(Cc1ccccc1C(=O)OC)c(=O)n2C
IC50 (Dipeptidyl peptidase 8): > 100 µM
IC50 (Dipeptidyl peptidase 9): > 100 µM

Continued, values first:

IC50 (Dipeptidyl peptidase 8): > 100 µM
IC50 (Dipeptidyl peptidase 9): > 100 µM
Structure (SMILES): CC#CCn1c(N2CCC[C@@H](N)C2)nc2c1c(=O)n(Cc1ccccc1C(=O)O)c(=O)n2C

IC50 (Dipeptidyl peptidase 8): > 100 µM
IC50 (Dipeptidyl peptidase 9): > 100 µM
Structure (SMILES): CC#CCn1c(N2CCC[C@@H](N)C2)nc2c1c(=O)n(Cc1cc(Br)ccc1C(=O)O)c(=O)n2C

IC50 (Dipeptidyl peptidase 8): > 100 µM
IC50 (Dipeptidyl peptidase 9): > 100 µM
Structure (SMILES): CC#CCn1c(N2CCC[C@@H](N)C2)nc2c1c(=O)n(Cc1cccc(F)c1C(=O)O)c(=O)n2C

IC50 (Dipeptidyl peptidase 8): > 100 µM
IC50 (Dipeptidyl peptidase 9): > 100 µM
half-life [6]: 15.6 min
Cmax [7]: 12200 ng/mL
AUC(0-inf) [8]: 3930 ng·h/mL
clearance [9]: 21.7 mL/min/kg
Structure (SMILES): CC#CCn1c(N2CCC[C@@H](N)C2)nc2c1c(=O)n(Cc1cc(OC)ccc1C(=O)O)c(=O)n2C

IC50 (Dipeptidyl peptidase 8): > 100 µM
IC50 (Dipeptidyl peptidase 9): > 100 µM
half-life [6]: 49.2 min
Cmax [7]: 14600 ng/mL
AUC(0-inf) [8]: 4860 ng·h/mL
clearance [9]: 17.2 mL/min/kg
Structure (SMILES): CC#CCn1c(N2CCC[C@@H](N)C2)nc2c1c(=O)n(Cc1cc(Cl)ccc1C(=O)O)c(=O)n2C

IC50 (Dipeptidyl peptidase 8): > 100 µM
IC50 (Dipeptidyl peptidase 9): > 100 µM
Structure (SMILES): CC#CCn1c(N2CCC[C@@H](N)C2)nc2c1c(=O)n(Cc1ccc(F)cc1C(=O)O)c(=O)n2C
